Here are results for one compound from PMC2902569 (Nature biotechnology, 2010).

In the assay the target is T1, Met30 (Saccharomyces cerevisiae, UniProt P39014).
T1 sequence (P39014 1-640): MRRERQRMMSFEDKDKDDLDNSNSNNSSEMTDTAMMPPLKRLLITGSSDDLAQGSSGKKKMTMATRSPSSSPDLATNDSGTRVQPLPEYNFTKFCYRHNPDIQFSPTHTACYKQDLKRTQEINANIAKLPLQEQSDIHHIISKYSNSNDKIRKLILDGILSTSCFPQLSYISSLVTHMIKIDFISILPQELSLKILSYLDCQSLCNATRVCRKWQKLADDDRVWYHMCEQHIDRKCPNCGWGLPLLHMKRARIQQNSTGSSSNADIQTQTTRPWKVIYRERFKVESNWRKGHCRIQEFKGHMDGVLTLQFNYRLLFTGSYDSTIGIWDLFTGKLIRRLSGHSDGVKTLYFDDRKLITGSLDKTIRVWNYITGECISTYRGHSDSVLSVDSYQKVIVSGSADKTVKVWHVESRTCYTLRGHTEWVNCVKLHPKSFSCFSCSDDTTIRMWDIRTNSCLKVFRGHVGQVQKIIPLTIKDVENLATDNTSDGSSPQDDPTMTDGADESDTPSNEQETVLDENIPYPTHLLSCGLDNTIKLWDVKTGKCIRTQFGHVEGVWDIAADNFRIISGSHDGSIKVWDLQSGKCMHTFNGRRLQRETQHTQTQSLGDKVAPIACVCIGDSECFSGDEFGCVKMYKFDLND
Kind of assay: DARTS, thermolysin or subtilisin protection, immunoblot. The format is biochemical. Particulars: yeast lysate (Skp1 present); also in vitro translated Met30.

For `O=C1c2ccccc2-c2nc3nonc3nc21` [SMER3], the “DARTS, thermolysin or subtilisin protection, immunoblot” value is “we observed SMER3-dependent protection of Met30”.
